Data set [1] deals with Mycobacterium tuberculosis H37Ra ITM-M006710 (ATCC 9431). In words: Antimycobacterial microdilution (resazurin) vs Mtb H37Ra. Type of data set: cell-based. To be noted: Middlebrook 7H9, resazurin, recalculated from µg/mL, read-out: MIC Mtb H37Ra.
The test system of data set [2] is Mycobacterium tuberculosis H37Rv CNCTC My 331/88 (ATCC 27294). In words: Microplate Alamar Blue assay vs Mtb H37Rv. The data set is classed as cell-based. As to conditions: Mycobacterium tuberculosis, pH 6.6, MABA, Middlebrook 7H9 pH 6.6, recalculated from µg/mL; read-out: MIC Mtb H37Rv.
Data set [3] relates to Mycobacterium kansasii DSM 44,162 (ATCC 12478). Kind of data set: Antimycobacterial microdilution (resazurin) vs M. kansasii. Type of data set: cell-based. To be noted: read-out: MIC M. kansasii. A general note: In broth dilution the organism is exposed to a series of concentrations in liquid medium.
In data set [4] the test system is Mycobacterium avium DSM 44,156 (ATCC 25291). In words: Antimycobacterial microdilution (resazurin) vs M. avium. The data set is classed as cell-based. As to conditions: Middlebrook 7H9, resazurin, read-out: MIC M. avium.
Data set [5] has as its system Mycolicibacterium aurum DSM 43,999 (ATCC 23366). In words: Antimycobacterial microdilution (resazurin) vs M. aurum. The data set is classed as cell-based. To be noted: Middlebrook 7H9, resazurin, read-out: MIC M. aurum.
Data set [6] has as its system Mycolicibacterium smegmatis DSM 43,465 (ATCC 607). Kind of data set: Antimycobacterial microdilution (resazurin) vs M. smegmatis. Type of data set: cell-based. To be noted: Middlebrook 7H9, resazurin, read-out: MIC M. smeg.
Data set [7] concerns Staphylococcus aureus subsp. aureus CCM 4223 (ATCC 29213). Kind of data set: Antibacterial microdilution broth (EUCAST). As to conditions: read-out: MIC Staphylococcus aureus subsp. aureus. Type of data set: cell-based.
Data set [8] has as its system methicillin-resistant Staphylococcus aureus subsp. aureus (MRSA) CCM 4750 (ATCC 43300). Kind of data set: microbe, parasite or virus in culture. Type of data set: cell-based. To be noted: read-out: MIC Methicillin-resistant Staphylococcus aureus subsp. aureus.
Data set [9] concerns Staphylococcus epidermidis CCM 4418 (ATCC 12228). Kind of data set: Antibacterial microdilution broth (EUCAST). Type of data set: cell-based. To be noted: read-out: MIC Staphylococcus epidermidis.
Data set [10] deals with Enterococcus faecalis CCM 4224 (ATCC 29212). Kind of data set: Antibacterial microdilution broth (EUCAST). Type of data set: cell-based. As to conditions: read-out: MIC Enterococcus faecalis.
In data set [11] the test system is Escherichia coli CCM 3954 (ATCC 25922). In words: Antibacterial microdilution broth (EUCAST). The data set is classed as cell-based. As to conditions: Escherichia coli, read-out: MIC Escherichia coli.
Data set [12] has as its system Klebsiella pneumoniae CCM 4415 (ATCC 10031). Kind of data set: Antibacterial microdilution broth (EUCAST). Type of data set: cell-based. To be noted: Klebsiella pneumoniae, read-out: MIC Klebsiella pneumoniae.
The subject of data set [13] is Acinetobacter baumannii DSM 30007 (ATCC 19606). In words: Antibacterial microdilution broth (EUCAST). The data set is classed as cell-based. To be noted: read-out: MIC Acinetobacter baumannii.
The test system of data set [14] is Pseudomonas aeruginosa CCM 3955 (ATCC 27853). In words: Antibacterial microdilution broth (EUCAST). Type of data set: cell-based. As to conditions: read-out: MIC Pseudomonas aeruginosa.
In data set [15] the test system is Candida albicans CCM 8320 (ATCC 24433). Kind of data set: Antifungal microdilution broth (EUCAST). The data set is classed as cell-based. To be noted: Candida albicans, read-out: MIC Candida albicans.
The subject of data set [16] is Candida krusei CCM 8271 (ATCC 6258). Kind of data set: Antifungal microdilution broth (EUCAST). Type of data set: cell-based. To be noted: Pichia kudriavzevii, read-out: MIC Candida krusei.
Data set [17] relates to Candida parapsilosis CCM 8260 (ATCC 22019). Kind of data set: Antifungal microdilution broth (EUCAST). To be noted: Lodderomyces parapsilosis, read-out: MIC Candida parapsilosis. Type of data set: cell-based.
For data set [18], the system named is Candida tropicalis CCM 8264 (ATCC 750). In words: Antifungal microdilution broth (EUCAST). Type of data set: cell-based. To be noted: read-out: MIC Candida tropicalis.
Data set [19] relates to Aspergillus fumigatus ATCC 204305. In words: Antifungal microdilution broth (EUCAST). The data set is classed as cell-based. To be noted: Aspergillus fumigatus, read-out: MIC Aspergillus fumigatus.
Data set [20] deals with Aspergillus flavus CCM 8363. In words: Antifungal microdilution broth (EUCAST). The data set is classed as cell-based. As to conditions: Aspergillus flavus, read-out: MIC Aspergillus flavus.
In data set [21] the test system is Lichtheimia corymbifera CCM 8077. In words: Antifungal microdilution broth (EUCAST). The data set is classed as cell-based. As to conditions: Lichtheimia corymbifera, read-out: MIC Lichtheimia corymbifera.
Data set [22] deals with Trichophyton interdigitale CCM 8377 (ATCC 9533). Kind of data set: Antifungal microdilution broth (EUCAST). The data set is classed as cell-based. To be noted: Trichophyton interdigitale, read-out: MIC Trichophyton interdigitale.
The test system of the next data set is HepG2 cell line. In words: Cytotoxicity screening, CellTiter 96 assay. As to conditions: Homo sapiens, HepG2, 24 h, read-out: IC50 HepG2.
In the next data set the test system is Mtb laboratory ID IZAK. Type of data set: cell-based, Mycobacterium tuberculosis. To be noted: for Susceptibility: CLSI breakpoints 2020.
Another data set concerns Mtb laboratory ID MATI. Type of data set: cell-based, Mycobacterium tuberculosis. As to conditions: for Susceptibility: CLSI breakpoints 2021.

Values after ≈ are worked out from the molar mass of the structure shown. Where two headings read alike, the source gives them in different places.

With `O=C(Nc1ccc2c(c1)B(O)OC2)c1ccc2ccccc2n1` [Compound 19, N-(1-hydroxy-1,3-dihydrobenzo[c][1,2]oxaborol-6-yl)quinoline-2-carboxamide], the melting point (in general, the temperature, or range, at which the solid turns liquid) was in the range of 201 to 203.1 °C. Also, the MIC in data set [1] was 206 µM (≈ 62.5 µg/mL). The MIC in data set [2] was 82.2 µM (≈ 25 µg/mL). In addition, in data set [3], the MIC was 206 µM (≈ 62.5 µg/mL). The MIC in data set [4] is 25.68 µM (≈ 7.81 µg/mL). Further, the MIC in [4] (Mycobacterium avium) was 25.6 µM (≈ 7.78 µg/mL). Also, in data set [5], the MIC was found to be 25.7 µM (≈ 7.81 µg/mL). For the same molecule, the MIC in [6] came out at 25.7 µM (≈ 7.81 µg/mL). The MIC in data set [7] (24 h) was 125 µM (≈ 38 µg/mL). Besides, the MIC in [7] (48 h) amounted to 125 µM (≈ 38 µg/mL). Besides, the MIC in [8] (24 h) is more than 125 µM. Also, the MIC in [8] (48 h) was more than 125 µM. In data set [9] (24 h), the MIC was more than 125 µM. In data set [9] (48 h), the MIC was more than 125 µM. Besides, the MIC in [10] (24 h) was more than 125 µM. Moreover, in data set [10] (48 h), the MIC is more than 125 µM. For the same molecule, the MIC in [11] (24 h) was more than 125 µM. The MIC in [11] (48 h) is more than 125 µM. In [12] (24 h), the MIC was more than 125 µM. The MIC in [12] (48 h) was more than 125 µM. The MIC in data set [13] (24 h) was more than 125 µM. Besides, the MIC in [13] (48 h) was more than 125 µM. In [14] (24 h), the MIC was more than 125 µM. Besides, in data set [14] (48 h), the MIC was more than 125 µM. The MIC in [15] (24 h) is more than 125 µM. In addition, the MIC in data set [15] (48 h) was more than 125 µM. Further, the MIC in data set [16] (24 h) is more than 125 µM. Moreover, in data set [16] (48 h), the MIC was more than 125 µM. In addition, the MIC in data set [17] (24 h) was more than 125 µM. The MIC in data set [17] (48 h) is more than 125 µM. In [18] (24 h), the MIC is more than 125 µM. The MIC in data set [18] (48 h) was more than 125 µM. Moreover, in data set [19] (ATCC204305, 24 h), the MIC was more than 125 µM. Also, the MIC in data set [19] (ATCC204305, 48 h) was more than 125 µM. Further, the MIC in [20] (CCM8363, 24 h) is more than 125 µM. The MIC in data set [20] (CCM8363, 48 h) was more than 125 µM. Further, the MIC in data set [21] (CCM8077, 24 h) is more than 125 µM. For the same molecule, the MIC in data set [21] (CCM8077, 48 h) was more than 125 µM. Moreover, in data set [22] (72 h), the MIC was more than 125 µM. For the same molecule, in data set [22] (120 h), the MIC is more than 125 µM. Besides, in the data set with HepG2 cell line, the IC50 (commonly the concentration needed to halve the response being measured) is 467 µM.
In the case of `NC(=O)c1cnccn1` [PZA, pyrazinamide], the Concentration in the data set with Mtb laboratory ID IZAK (strain IZAK, CLSI 2020) is on record as more than 129.96 µM; in the data set on Mtb laboratory ID MATI (strain MATI, CLSI 2021) it was more than 1039.70 µM. The Susceptibility entry in the data set with Mtb laboratory ID IZAK (strain IZAK) and in the data set with Mtb laboratory ID MATI (strain MATI) was “resistant” each time.
With `CO[C@H]1/C=C/O[C@@]2(C)Oc3c(C)c(O)c4c(O)c(c(/C=N/N5CCN(C)CC5)c(O)c4c3C2=O)NC(=O)/C(C)=C\C=C\[C@H](C)[C@H](O)[C@@H](C)[C@@H](O)[C@@H](C)[C@H](OC(C)=O)[C@@H]1C` [RIF, rifampicin, reference compound], the MIC in data set [1] was 0.00759 µM (≈ 0.00625 µg/mL); in [3] (Middlebrook 7H9, resazurin) it was 0.06 µM (≈ 0.0494 µg/mL); in data set [4] (Mycobacterium avium) it was 0.08 µM (≈ 0.0658 µg/mL); in [5], 0.47 µM (≈ 0.387 µg/mL); in data set [6], 15.2 µM (≈ 12.5 µg/mL). For the same molecule, the Concentration in the data set on Mtb laboratory ID IZAK and with Mtb laboratory ID MATI was more than 9.72 µM each time. The Susceptibility result with Mtb laboratory ID IZAK (strain IZAK) and with Mtb laboratory ID MATI (strain MATI) was “resistant” each time.
On to `[H]/N=C(/N)N[C@H]1[C@H](O)[C@@H](O)[C@H](O[C@@H]2O[C@@H](C)[C@](O)(C=O)[C@H]2O[C@@H]2O[C@@H](CO)[C@H](O)[C@@H](O)[C@@H]2NC)[C@@H](N/C(N)=N\[H])[C@@H]1O` [STM, streptomycin], for which the Concentration is on record as 6.88 µM in the data set on Mtb laboratory ID IZAK (strain IZAK, CLSI 2020) and more than 27.51 µM in the data set on Mtb laboratory ID MATI (strain MATI, CLSI 2021). The Susceptibility result with Mtb laboratory ID IZAK (strain IZAK) and in the data set with Mtb laboratory ID MATI (strain MATI) was “resistant” in each case.
